From ChEMBL document CHEMBL3352601, “Discovery of potent iminoheterocycle BACE1 inhibitors” (Bioorg Med Chem Lett, 2014)
Active and inactive are the calls of the source. The calls are words filed in the database; no cut-off is given here.

How the values were obtained:
Beta-secretase 1 [1] = molecular target: T1, Beta-secretase 1 (Homo sapiens, UniProt P56817)
Description: Inhibition of purified human BACE1 by FRET assay

Cathepsin D = Cathepsin D (Homo sapiens, UniProt P07339)
Description: Inhibition of cathepsin-D (unknown origin)

in vivo = details: rat, plasma, sc, 10 mg/kg
Beta-secretase 1 [2] = molecular target: T1, Beta-secretase 1; assay: Inhibition of BACE1-mediated amyloid beta 40 production in HEK293-APPswe/lon cells by whole cell assay in presence of P-gp inhibitor; type: cell-based
Beta-secretase 1 [3] = molecular target: T1, Beta-secretase 1; assay: Inhibition of BACE1-mediated amyloid beta 40 production in HEK293-APPswe/lon cells by whole cell assay; type: cell-based
Rattus norvegicus = assay: Reduction of amyloid beta 40 level in rat plasma at 30 mg/kg, po relative to control; type: functional; parameters: scale not given: the % may be the effect or the level left
Mus musculus = species: Mus musculus; assay: Reduction of cortical amyloid beta 40 level in CRND8-APP mouse model; type: functional, organism-based

Sequence of Cathepsin D (P07339 65-162 limits assumed): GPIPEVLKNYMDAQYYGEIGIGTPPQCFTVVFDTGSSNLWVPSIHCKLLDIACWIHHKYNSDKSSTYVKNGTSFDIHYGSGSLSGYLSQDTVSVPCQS
Sequence of Cathepsin D (P07339 169-412 limits assumed): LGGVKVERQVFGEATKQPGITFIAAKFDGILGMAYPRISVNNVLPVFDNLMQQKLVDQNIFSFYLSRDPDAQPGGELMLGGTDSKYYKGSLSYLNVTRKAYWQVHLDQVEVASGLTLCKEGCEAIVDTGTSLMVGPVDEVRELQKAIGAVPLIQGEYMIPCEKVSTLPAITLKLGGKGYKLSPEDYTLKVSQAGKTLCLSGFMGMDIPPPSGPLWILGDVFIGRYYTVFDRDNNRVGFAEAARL
T1 sequence (P56817 whole entry): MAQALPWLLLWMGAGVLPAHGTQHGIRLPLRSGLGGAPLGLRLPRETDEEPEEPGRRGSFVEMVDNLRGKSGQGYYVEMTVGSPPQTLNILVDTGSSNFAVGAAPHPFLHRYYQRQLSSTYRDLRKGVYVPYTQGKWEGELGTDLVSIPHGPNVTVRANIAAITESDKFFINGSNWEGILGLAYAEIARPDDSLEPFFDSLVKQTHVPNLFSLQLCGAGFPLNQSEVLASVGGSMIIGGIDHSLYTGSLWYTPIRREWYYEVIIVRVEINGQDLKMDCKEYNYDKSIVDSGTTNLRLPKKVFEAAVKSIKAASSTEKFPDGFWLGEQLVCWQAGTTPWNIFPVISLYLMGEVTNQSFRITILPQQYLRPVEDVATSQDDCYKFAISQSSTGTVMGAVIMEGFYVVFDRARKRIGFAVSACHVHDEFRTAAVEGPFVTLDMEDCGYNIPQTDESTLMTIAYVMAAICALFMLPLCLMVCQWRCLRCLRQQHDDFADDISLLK

SMILES	Ki (Beta-secretase 1 [1])	Ki (Cathepsin D)	other results
CN1C(=N)N[C@](CCC2CCCCC2)(C[C@@H]2CCCN(C(=O)OC(C)(C)C)C2)C1=O	41000 nM	33 µM	–
CN1C(=N)N[C@](CCC2CCCCC2)(C[C@H]2CCCN(C(=O)OC(C)(C)C)C2)C1=O	29000 nM	> 100 µM	–
CN1C(=N)N[C@](CCC2CCCCC2)(C[C@H]2CCC[C@@H](NC(=O)Nc3cnc4ccccc4n3)C2)C1=O	14 nM	7.5 µM	–
COc1ccc(NC(=O)N[C@@H]2CCC[C@H](C[C@@]3(CCC4CCCCC4)NC(=N)N(C)C3=O)C2)cc1	10 nM	2.5 µM	–
CN1C(=N)N[C@](CCC2CCCCC2)(C[C@H]2CCC[C@@H](NC(=O)Nc3ccc(Cl)cc3)C2)C1=O	10 nM	> 100 µM	–
CCCCC(=O)N1CC[C@H](C[C@@]2(CCC3CCCCC3)NC(=N)N(C)C2=O)C1	490 nM	23 µM	–
CCCCC(=O)N1CCC[C@H](C[C@@]2(CCC3CCCCC3)NC(=N)N(C)C2=O)C1	3200 nM	44 µM	–
COc1ccccc1NC(=O)N[C@@H]1CCC[C@H](C[C@@]2(CCC3CCCCC3)NC(=N)N(C)C2=O)C1	276 nM	2.4 µM	–
CN1C(=N)N[C@](CCC2CCCCC2)(C[C@@H]2CCCN(C(=O)CC3CCCC3)C2)C1=O	–	8.5 µM	–
CN1C(=N)N[C@](CCC2CCCCC2)(C[C@H]2CCC[C@@H](NC(=O)Nc3ccccc3Cl)C2)C1=O	301 nM	8.5 µM	–
CN1C(=N)N[C@](CCC2CCCCC2)(C[C@H]2CCC[C@@H](NC3CCCCC3)C2)C1=O	230 nM	63.5 µM	–
CCCCS(=O)(=O)N1CCC[C@H](C[C@@]2(CCC3CCCCC3)NC(=N)N(C)C2=O)C1	6300 nM	25.5 µM	–
CN1C(=N)N[C@](CCC2CCCCC2)(C[C@H]2CCC[C@@H](NC(=O)Nc3ccc4ccccc4n3)C2)C1=O	22 nM	25 µM	AUC(0-t) at 6 h (in vivo): 0.306 µM·h; EC50 (Beta-secretase 1 [2]): 110 nM; EC50 (Beta-secretase 1 [3]): 258 nM; Activity (Rattus norvegicus): 55%; Activity (Mus musculus): inactive
CN1C(=N)N[C@](CCC2CCCCC2)(C[C@@H]2CCCNC2)C1=O	66000 nM	> 100 µM	–
CN1C(=N)N[C@](CCC2CCCCC2)(C[C@H]2CCC[C@@H](NC(=O)NC3CCCCC3)C2)C1=O	138 nM	6 µM	–
CCCCC(=O)N1CCC[C@@H](C[C@@]2(CCC3CCCCC3)NC(=N)N(C)C2=O)C1	17000 nM	28 µM	–
CN1C(=N)N[C@](CCC2CCCCC2)(C[C@H]2CCC[C@@H](NC(=O)Cc3ccccc3)C2)C1=O	585 nM	3.5 µM	–
CCCCC(=O)N1CC[C@@H](C[C@@]2(CCC3CCCCC3)NC(=N)N(C)C2=O)C1	17400 nM	–	–
CN1C(=N)N[C@](CCC2CCCCC2)(C[C@H]2CCCN(C(=O)CC3CCCC3)C2)C1=O	–	0.87 µM	–
CN1C(=N)N[C@](CCC2CCCCC2)(C[C@H]2CCCNC2)C1=O	8500 nM	> 100 µM	–
CN1C(=N)N[C@](CCC2CCCCC2)(C[C@H]2CCC[C@@H](NC(=O)Nc3ccc(C#N)cc3)C2)C1=O	3 nM	6.9 µM	–
CN1C(=N)N[C@](CCC2CCCCC2)(C[C@H]2CCC[C@@H](NC(=O)c3ccccc3)C2)C1=O	130 nM	3.8 µM	–
CCCNC(=O)N1CCC[C@H](C[C@@]2(CCC3CCCCC3)NC(=N)N(C)C2=O)C1	8500 nM	2.8 µM	–
CN1C(=N)N[C@](CCC2CCCCC2)(C[C@H]2CCC[C@@H](NCC3CC3)C2)C1=O	480 nM	53.3 µM	–
CCCCCN1CCC[C@H](C[C@@]2(CCC3CCCCC3)NC(=N)N(C)C2=O)C1	7600 nM	> 100 µM	–
